Publication PMC3454376, “Salidroside Improves Behavioral and Histological Outcomes and Reduces Apoptosis via PI3K/Akt Signaling after Experimental Traumatic Brain Injury” (PLoS ONE, 2012)

Legend:
[1] = tested on: cytosolic Smac/DIABLO; experiment: Western blot, cytosolic fraction of injured cortex; assay type: in vivo, mice; conditions: 20 mg/kg ip 10 min after CCI, P<0.05
Method: (§1) Three sets of experiments were performed. The first set was to investigate the protective effects of salidroside. All animals were randomized into 1 of 3 groups (sham injury, CCI + vehicle, CCI + SALD 20). Surgery/injury, behavioral testing, and tissue analyses were performed by different individuals. Behavioral testing and tissue analyses were performed by individuals blinded to the treatment group. Salidroside (Cayman Chemical, Ann Arbor, MI, USA) dissolved in normal saline (0.25 mL) or a corresponding volume of vehicle (saline) was administered intraperitoneally 10 min following injury. Testing after injury was completed as follows: 1) behavioral testing at days 1, 4, 7, 14, 21, and 28 (n = 8–10 mice/group); 2) cresyl violet staining at day 28 (n = 9 mice/group); 3) histology, determination of brain water content, and western blot analysis at day 1 or 3 (n = 5–6 mice/group). To determine the optimal dose of salidroside, a pilot study was performed using 2 different doses (20 and 50 mg/kg) administered 10 min after injury, and neurological deficits and tissue damage were evaluated as the main outcomes. […] The second set of experiment was to assess the effect of the inhibition of PI3K/Akt with the specific PI3K inhibitor, LY294002 (Cell Signaling Technology, Danvers, MA, USA), on salidroside effects. Animals were randomized into 4 groups. Mice received either: 1) icv pretreatment of LY294002 followed by SALD 20 after CCI (S20Y group); or 2) icv pretreatment of saline (vehicle control) followed by SALD 20 after CCI (S20V group). 3) Mice were infused icv with saline and were subjected to sham injury. 4) Mice were infused icv with LY294002 and were subjected to sham injury. Testing after injury was completed as follows: 1) cresyl violet staining at day 28 (n = 6 mice/group); 2) western blot analysis at day 1 (n = 6 mice/group). The third set of experiment was performed to examine the neuroprotective time window afforded by salidroside. Mice received intraperitoneal SALD 20 or vehicle (saline) at 3 or 6 h following CCI and were sacrificed 1 day later for FJB staining and western blot analysis (n = 6 mice/group). Brains of injured or sham animals were collected 1 day and 3 days post CCI or sham surgery, and a 4 mm coronal section from the injured area over the parietal cortex and ipsilateral hippocampus were collected. […] Protein concentration was determined by Bradford reagent spectrophotometrically at A595. […] The relative intensity of protein signals was normalized to the corresponding β-actin intensity and was quantified by densitometric analysis with the use of Image J software. […]

[2] = tested on: cytosolic CytoC; experiment: Western blot, cytosolic fraction of injured cortex; assay type: in vivo, mice; conditions: 20 mg/kg ip 10 min after CCI
Method: as §1

With OC[C@H]1O[C@@H](OCCc2ccc(O)cc2)[C@H](O)[C@@H](O)[C@@H]1O [SALD, salidroside] the “cytosolic Smac/DIABLO level compared to vehicle-treated injured brains” value ([1]; day 1) was 45.1%, the “cytosolic Smac/DIABLO level compared to vehicle-treated injured brains” value ([1]; day 3) was 58.1% and the “cytosolic CytoC level compared to vehicle-treated injured brains” value ([2]; day 1, P<0.01) was 60.6%. The “cytosolic CytoC level compared to vehicle-treated injured brains” value ([2]; day 3, P<0.05) was 54.7%.
